The NIST ThermoML archive (doi:10.1016/j.jct.2004.12.008)
Numbers after ± are expanded uncertainties.

Assay: xn = mol fraction of the nth substance listed
Settings: 101 kPa, Liquid

O=[N+]([O-])c1ccccc1 [nitrobenzene] + Cc1ccc(C)cc1
Settings | mass density [kg/m3]
293.15 K, x2 = 0 | 1202.95 ± 2.3
293.15 K, x2 = 0.0587 | 1179.74 ± 2.1
293.15 K, x2 = 0.1232 | 1154.82 ± 1.9
293.15 K, x2 = 0.1933 | 1128.38 ± 1.7
293.15 K, x2 = 0.2516 | 1106.86 ± 1.6
293.15 K, x2 = 0.3298 | 1078.63 ± 1.3
293.15 K, x2 = 0.3891 | 1057.67 ± 1.2
293.15 K, x2 = 0.4423 | 1039.19 ± 1.1
293.15 K, x2 = 0.4983 | 1020.04 ± 0.91
293.15 K, x2 = 0.5512 | 1002.23 ± 0.78
293.15 K, x2 = 0.6242 | 978.08 ± 0.94
293.15 K, x2 = 0.6943 | 955.34 ± 1.1
293.15 K, x2 = 0.7523 | 936.85 ± 1.3
293.15 K, x2 = 0.8211 | 915.28 ± 1.5
293.15 K, x2 = 0.8723 | 899.49 ± 1.6
293.15 K, x2 = 0.9421 | 878.29 ± 1.8
303.15 K, x2 = 0 | 1193.56 ± 2.2
303.15 K, x2 = 0.0623 | 1168.84 ± 2
303.15 K, x2 = 0.1123 | 1149.43 ± 1.9
303.15 K, x2 = 0.1823 | 1122.85 ± 1.7
303.15 K, x2 = 0.2429 | 1100.38 ± 1.5
303.15 K, x2 = 0.3189 | 1072.84 ± 1.3
303.15 K, x2 = 0.3894 | 1047.9 ± 1.1
303.15 K, x2 = 0.4376 | 1031.16 ± 0.99
303.15 K, x2 = 0.4889 | 1013.63 ± 0.86
303.15 K, x2 = 0.5321 | 999.06 ± 0.76
303.15 K, x2 = 0.6078 | 973.98 ± 0.97
303.15 K, x2 = 0.6731 | 952.79 ± 1.1
303.15 K, x2 = 0.7561 | 926.4 ± 1.4
303.15 K, x2 = 0.8247 | 905.05 ± 1.6
303.15 K, x2 = 0.8871 | 885.97 ± 1.7
303.15 K, x2 = 0.9316 | 872.57 ± 1.8
313.15 K, x2 = 0 | 1183.36 ± 2.1
313.15 K, x2 = 0.0598 | 1159.6 ± 1.9
313.15 K, x2 = 0.1342 | 1130.81 ± 1.7
313.15 K, x2 = 0.1732 | 1116.05 ± 1.6
313.15 K, x2 = 0.2311 | 1094.53 ± 1.4
313.15 K, x2 = 0.3239 | 1060.94 ± 1.2
313.15 K, x2 = 0.3971 | 1035.18 ± 1
313.15 K, x2 = 0.4576 | 1014.35 ± 0.86
313.15 K, x2 = 0.514 | 995.29 ± 0.79
313.15 K, x2 = 0.5672 | 977.61 ± 0.94
313.15 K, x2 = 0.6234 | 959.24 ± 1.1
313.15 K, x2 = 0.6831 | 940.06 ± 1.2
313.15 K, x2 = 0.7421 | 921.43 ± 1.4
313.15 K, x2 = 0.7901 | 906.5 ± 1.5
313.15 K, x2 = 0.8611 | 884.8 ± 1.7
313.15 K, x2 = 0.9287 | 864.54 ± 1.9
323.15 K, x2 = 0 | 1172.38 ± 2
323.15 K, x2 = 0.048 | 1153.29 ± 1.9
323.15 K, x2 = 0.1243 | 1123.72 ± 1.7
323.15 K, x2 = 0.1892 | 1099.28 ± 1.5
323.15 K, x2 = 0.2572 | 1074.3 ± 1.3
323.15 K, x2 = 0.3249 | 1050.03 ± 1.1
323.15 K, x2 = 0.4023 | 1022.99 ± 0.91
323.15 K, x2 = 0.4683 | 1000.47 ± 0.75
323.15 K, x2 = 0.5138 | 985.24 ± 0.87
323.15 K, x2 = 0.5871 | 961.14 ± 1.1
323.15 K, x2 = 0.6422 | 943.39 ± 1.2
323.15 K, x2 = 0.7139 | 920.72 ± 1.4
323.15 K, x2 = 0.7811 | 899.92 ± 1.6
323.15 K, x2 = 0.8428 | 881.17 ± 1.8
323.15 K, x2 = 0.8781 | 870.6 ± 1.8
323.15 K, x2 = 0.9424 | 851.62 ± 2
333.15 K, x2 = 0 | 1160.59 ± 1.9
333.15 K, x2 = 0.0668 | 1134.27 ± 1.8
333.15 K, x2 = 0.1235 | 1112.51 ± 1.6
333.15 K, x2 = 0.1983 | 1084.57 ± 1.4
333.15 K, x2 = 0.2547 | 1064.03 ± 1.2
333.15 K, x2 = 0.3133 | 1043.14 ± 1.1
333.15 K, x2 = 0.3942 | 1015.02 ± 0.84
333.15 K, x2 = 0.4789 | 986.4 ± 0.85
333.15 K, x2 = 0.5287 | 969.96 ± 0.99
333.15 K, x2 = 0.5902 | 950.01 ± 1.2
333.15 K, x2 = 0.6517 | 930.44 ± 1.3
333.15 K, x2 = 0.7244 | 907.78 ± 1.5
333.15 K, x2 = 0.7923 | 887.08 ± 1.7
333.15 K, x2 = 0.8321 | 875.13 ± 1.8
333.15 K, x2 = 0.8832 | 860 ± 1.9
333.15 K, x2 = 0.9329 | 845.51 ± 2
343.15 K, x2 = 0 | 1147.99 ± 1.9
343.15 K, x2 = 0.0623 | 1123.65 ± 1.7
343.15 K, x2 = 0.1324 | 1097.02 ± 1.5
343.15 K, x2 = 0.1824 | 1078.5 ± 1.3
343.15 K, x2 = 0.2561 | 1051.86 ± 1.1
343.15 K, x2 = 0.3249 | 1027.65 ± 0.93
343.15 K, x2 = 0.3867 | 1006.43 ± 0.77
343.15 K, x2 = 0.4562 | 983.11 ± 0.87
343.15 K, x2 = 0.5139 | 964.17 ± 1
343.15 K, x2 = 0.5719 | 945.49 ± 1.2
343.15 K, x2 = 0.6317 | 926.6 ± 1.4
343.15 K, x2 = 0.691 | 908.21 ± 1.5
343.15 K, x2 = 0.7613 | 886.86 ± 1.7
343.15 K, x2 = 0.8312 | 866.07 ± 1.9
343.15 K, x2 = 0.8931 | 848.03 ± 2
343.15 K, x2 = 0.9537 | 830.69 ± 2.2
353.15 K, x2 = 0 | 1134.61 ± 1.7
353.15 K, x2 = 0.0479 | 1116.05 ± 1.6
353.15 K, x2 = 0.1123 | 1091.72 ± 1.4
353.15 K, x2 = 0.1742 | 1068.95 ± 1.2
353.15 K, x2 = 0.2498 | 1041.91 ± 1
353.15 K, x2 = 0.3013 | 1023.94 ± 0.9
353.15 K, x2 = 0.3781 | 997.79 ± 0.74
353.15 K, x2 = 0.4538 | 972.7 ± 0.95
353.15 K, x2 = 0.5247 | 949.8 ± 1.1
353.15 K, x2 = 0.6149 | 921.44 ± 1.4
353.15 K, x2 = 0.662 | 906.96 ± 1.5
353.15 K, x2 = 0.7137 | 891.32 ± 1.6
353.15 K, x2 = 0.7832 | 870.68 ± 1.8
353.15 K, x2 = 0.8312 | 856.69 ± 1.9
353.15 K, x2 = 0.8813 | 842.3 ± 2.1
353.15 K, x2 = 0.9422 | 825.1 ± 2.2
